Like-named read-outs stand apart in the source and are kept apart here.
What was measured:
[1] = target: T1, α1A adrenoceptor subtype (rabbit urethra) (Oryctolagus cuniculus, UniProt O02824); assay: Rabbit urethra tissue bath, agonism; conditions: for α1A efficacy: percent of phenylephrine (100%) contraction
T1 sequence (O02824 1-466): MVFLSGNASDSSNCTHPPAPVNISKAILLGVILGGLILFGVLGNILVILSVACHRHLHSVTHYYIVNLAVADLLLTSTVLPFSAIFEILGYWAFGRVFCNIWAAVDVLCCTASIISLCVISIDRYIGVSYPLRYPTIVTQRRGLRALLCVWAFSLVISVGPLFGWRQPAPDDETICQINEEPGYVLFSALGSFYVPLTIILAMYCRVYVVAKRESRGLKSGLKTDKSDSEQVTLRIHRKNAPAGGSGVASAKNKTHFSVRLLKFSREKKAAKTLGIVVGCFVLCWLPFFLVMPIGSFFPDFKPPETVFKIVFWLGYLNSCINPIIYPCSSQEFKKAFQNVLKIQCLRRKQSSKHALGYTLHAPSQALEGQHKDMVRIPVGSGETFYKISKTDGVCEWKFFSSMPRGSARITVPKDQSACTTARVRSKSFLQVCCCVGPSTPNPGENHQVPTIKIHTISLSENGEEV
Description: (§1) Quantitative analysis of agonist and antagonist action is the basis of receptor classification and drug design. […] The interaction of an agonist with a receptor may be characterized by two quantities, affinity and efficacy. These quantities can be estimated by generating two concentration response curves and fitting the data to a four parameter curve smoothing routine. The first curve is a reference standard followed by a thorough rinsing and a second curve generated using the test agent. […] Agonist potency (pD2) is expressed as the negative log10 of the EC50. The efficacy is determined by comparing the maximum value of the test agent to the maximum value of the reference agent and expressed as a % of maximum response.
(§2) A cumulative concentration protocol was employed. […] Br. J. Pharmacol. 14, 48-58.
The efficacy of the compounds are compared as a percent of phenylephrine (100%) contraction.

[2] = for IUP ED5 mmHg: dose producing 5 mmHg increase in IUP; for Selectivity ratio MAP ED20/IUP ED5: calculated for each dog and then averaged
Description: Intraurethral Pressure in Dogs (IUP-MAP test)
Female Beagle dogs (Marshall Farms, North Rose, N.Y.) greater that 2 years of age and weighing between 12 and 15 kg were used in these studies. At least 2 weeks prior to any agonist dosing, dogs were instrumented for the chronic measurement of arterial blood pressure by implanting a telemetry transducer/transmitter (TA11PA-C40, Data Sciences International, St. Paul, Minn.) into a carotid artery.
On the test day, dogs fasted since the previous afternoon were pre-anesthetized with thiopental sodium 15 mg/kg i.v. (Pentothal™, Abbott) and intubated. Anesthesia was maintained by allowing the dog to spontaneously breathe a mixture of isoflurane (2.5 to 3 volume %) and oxygen delivered by a Narkomed Standard anesthesia system (North American Drager, Telford, Pa.). An Abbocath-T™ i.v. catheter (18-G, Abbott Laboratories, Abbott Park, Ill.) was inserted into the cephalic vein for the administration of agonists. A telemetry receiver (RA1310, DataSciences) was placed under the head of each dog and was interfaced to a computerized data acquisition system (Modular Instruments Inc.(MI2), Malvern, Pa.) which allowed for the continuous calibrated recording of arterial blood pressure which was electronically filtered to determine its mean value (MAP).
Briefly, a 7 Fr catheter balloon catheter (41224-01, Abbott) was inserted into the urethral orifice and advanced approximately 15 cm until the tip was well inside the bladder. The balloon was then inflated with 1 ml of room air and the catheter slowly withdrawn until resistance (corresponding to the bladder neck) was evident. The balloon was then deflated and the catheter withdrawn an additional 2 cm. The balloon was then reinflated and its catheter port connected to a Gould Statham P23Dd pressure transducer interfaced to a computerized data acquisition system (Modular Instruments, Inc., Malvern, Pa.) for the measurement of intraurethral pressure (IUP). The MAP and IUP pressor responses to increasing iv doses of test agonists were obtained simultaneously. The pressor effects of each dose were allowed to return to baseline before the next dose was given.
The dose required to elicit significant and clinically meaningful changes in IUP (5 mm Hg) relative to the dose required to elicit a physiologically significant increase in blood pressure (20 mm Hg) is calculated.
IUP and MAP pressor effects of each agonist dose were expressed as the maximum net change in each pressure over pre-dose baseline levels. Subsequently, the effective doses required to produce a 5 mmHg increase in IUP (IUP ED5mmHg) and a 20 mmHg increase in MAP (MAP ED20mmHg) were estimated from the dose response data from each dog. Relative urethral versus vascular selectivity of each agonist in each dog was estimated using a ratio of these respective potency indices (MAP ED20mmHg/IUP ED5mmHg).
Data are expressed as means (±S.E.M) and all doses are in nmol/kg, i.v.

[3] = target: T2, α1D adrenoceptor subtype (rat aorta) (Rattus norvegicus, UniProt P23944); assay: Rat aorta tissue bath, agonism; conditions: for α1D efficacy: percent of phenylephrine (100%) contraction
T2 sequence (P23944 1-561): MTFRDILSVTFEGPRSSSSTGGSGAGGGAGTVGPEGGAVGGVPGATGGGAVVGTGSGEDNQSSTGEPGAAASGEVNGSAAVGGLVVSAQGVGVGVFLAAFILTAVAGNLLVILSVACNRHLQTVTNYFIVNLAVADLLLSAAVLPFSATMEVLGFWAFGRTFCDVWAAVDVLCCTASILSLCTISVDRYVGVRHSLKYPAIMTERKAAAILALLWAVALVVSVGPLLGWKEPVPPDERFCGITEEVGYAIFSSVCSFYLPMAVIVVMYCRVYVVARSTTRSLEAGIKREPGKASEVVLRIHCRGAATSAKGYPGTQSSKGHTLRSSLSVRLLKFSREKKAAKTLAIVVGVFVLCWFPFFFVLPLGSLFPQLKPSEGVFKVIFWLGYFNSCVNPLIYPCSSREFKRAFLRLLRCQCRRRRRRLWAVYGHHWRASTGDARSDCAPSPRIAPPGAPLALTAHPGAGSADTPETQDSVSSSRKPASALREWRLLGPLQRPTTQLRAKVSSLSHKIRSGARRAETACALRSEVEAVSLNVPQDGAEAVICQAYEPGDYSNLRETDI
Description: as §1, §2

[4] = target: T3, α1B adrenoceptor subtype (rat spleen) (Rattus norvegicus, UniProt P15823); conditions: for type of antagonism at α1B: based on slope and regression (r) of Schild plot; for α1B r (regression of Schild plot) / α1B slope (Schild plot): rat spleen
T3 sequence (P15823 1-515): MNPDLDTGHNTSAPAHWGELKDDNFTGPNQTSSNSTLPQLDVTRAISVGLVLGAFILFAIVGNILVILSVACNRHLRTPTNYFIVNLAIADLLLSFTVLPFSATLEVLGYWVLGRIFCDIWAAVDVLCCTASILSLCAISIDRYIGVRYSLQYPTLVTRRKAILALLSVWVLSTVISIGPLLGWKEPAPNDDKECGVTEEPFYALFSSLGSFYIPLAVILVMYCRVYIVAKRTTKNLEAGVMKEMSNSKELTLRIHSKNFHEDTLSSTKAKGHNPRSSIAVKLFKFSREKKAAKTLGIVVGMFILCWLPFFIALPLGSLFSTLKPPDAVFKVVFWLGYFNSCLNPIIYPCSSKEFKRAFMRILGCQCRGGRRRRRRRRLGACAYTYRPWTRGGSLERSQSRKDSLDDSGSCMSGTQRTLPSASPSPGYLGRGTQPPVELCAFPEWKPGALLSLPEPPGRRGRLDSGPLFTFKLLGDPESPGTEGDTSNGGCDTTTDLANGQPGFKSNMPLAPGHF
Description: as §2
(§3) The spleen was split longitudinally into two preparations per rat.

[5] = target: T3, α1B adrenoceptor subtype (rat spleen); assay: Rat spleen tissue bath, agonism; set-up: The spleen was split longitudinally into two preparations per rat; from tissue; host or cells: rat spleen
Description: as §1, §2, §3

[6] = target: T2, α1D adrenoceptor subtype (rat aorta)
Description: (§4) The interaction of an antagonist with a receptor can be characterized by an affinity constant, pA2. The affinity unit, pA2, can be defined as negative logarithm to base 10 of the molar concentration of antagonist drug that will reduce the effect of the reference agonist by 50%. […] The fractional increase in agonist concentration required to overcome the effects of the antagonist should be independent of the agonist concentration. Secondly, the affinity of the antagonist should be independent of concentration, therefore the Schild plot should have a slope of unity. Thirdly, the antagonist affinity should be independent of the agonist used.
(§5) The urethra was removed with the urinary bladder and immediately placed into Krebs Ringer bicarbonate solution with the following mM concentrations: 120 NaCl, 18.0 NaHCO3, 11.0 dextrose, 4.7 KCl, 2.5 CaCl2, 1.5 MgSO4, 1.2 KH2PO4 and equilibrated with 5% CO2:95% O2. The pH was adjusted to 7.2 at 25° C. by titrating with a saturated solution of NaHCO3. The pH increased to 7.4 at 37° C. Propranolol (0.004 mM) was included in all of the assays to block β-adrenoceptors. […] One end was fixed to a stationary glass rod and the other to a Grass FT03 transducer at a basal preload of 1.0 g of tension. Data was recorded on a Grass model-7 polygraph. Tissues were rinsed every 10 minutes for a total of 45-60 minutes. The urethra was primed once with 80 mM KCl, rinsed to basal tension and again with 10 μM phenylephrine (PE). After an additional 60 minute equilibration period a reference concentration response curve was generated for each tissue using PE as the reference agonist. A cumulative concentration protocol was employed. Following a 75 minute washout period a second response curve was then generated in the same fashion using the test agent. The amount of agent necessary to cause a 50% response (ED50) was calculated using “AGANTG” (Zielinski, P. J., Buckner, S. A. (1998). AGANTG: A Microsoft Excel 5.0-visual basic routine for the analysis of dose-response data. Analyst. 123, 1661-1668), a four parameter curve fitting program similar to “Allfit” (DeLean, A., Munson, P. J., Rodbard, D. (1980). Simultaneous analysis of families of sigmoidal curves: application to bioassay, radioligand assay, and physiological dose-response curves. Am. J. Physiol. 235, E97-102). Agonist potencies were indexed to PE and expressed as the negative logarithm (pD2). Each tissue was used for only one test agonist. For antagonists, the test agent was allowed a 30 minute exposure time before a second PE curve was started. The potency, expressed as a pA2, was calculated according to the method of Arunlakshana, O., Schild, H. O. (1959), Some quantitative uses of drug antagonists. […] The individual tissues were exposed to only one concentration of the test antagonist. The regression lines of the Schild plots were analyzed using least squares regression (Snedecor, G. W., Cochran, W. G., (1980). In Statistical methods, 7th edition, Iowa State University Press, Ames, Iowa).
(§6) Male Sprague Dawley rats (350-450 g) were sedated with CO2 and decapitated. The entire thoracic aorta was removed and immediately placed into Krebs Ringer bicarbonate solution as described above. The aorta was cleaned of extraneous tissue and the endothelium removed by passing a 100 mm length of PE-160 tubing through the lumen. The aorta was cut into 3-4 mm rings and mounted in 10 ml isolated tissue baths at 37° C.

[7] = target: T2, α1D adrenoceptor subtype (rat aorta); conditions: for type of antagonism at α1D: based on slope and regression (r) of Schild plot; for α1D r (regression of Schild plot) / α1D slope (Schild plot): rat aorta
Description: as §4, §5, §6

[8] = target: T4, α1b adrenoceptor (hamster receptor expressed in mouse fibroblasts) (Mesocricetus auratus, UniProt P18841); assay: Radioligand binding, α1b (hamster receptor expressed in mouse fibroblasts), [3H]-prazosin
T4 construct: expressed in transfected cells; host or cells: mouse fibroblasts
T4 sequence (P18841 1-515): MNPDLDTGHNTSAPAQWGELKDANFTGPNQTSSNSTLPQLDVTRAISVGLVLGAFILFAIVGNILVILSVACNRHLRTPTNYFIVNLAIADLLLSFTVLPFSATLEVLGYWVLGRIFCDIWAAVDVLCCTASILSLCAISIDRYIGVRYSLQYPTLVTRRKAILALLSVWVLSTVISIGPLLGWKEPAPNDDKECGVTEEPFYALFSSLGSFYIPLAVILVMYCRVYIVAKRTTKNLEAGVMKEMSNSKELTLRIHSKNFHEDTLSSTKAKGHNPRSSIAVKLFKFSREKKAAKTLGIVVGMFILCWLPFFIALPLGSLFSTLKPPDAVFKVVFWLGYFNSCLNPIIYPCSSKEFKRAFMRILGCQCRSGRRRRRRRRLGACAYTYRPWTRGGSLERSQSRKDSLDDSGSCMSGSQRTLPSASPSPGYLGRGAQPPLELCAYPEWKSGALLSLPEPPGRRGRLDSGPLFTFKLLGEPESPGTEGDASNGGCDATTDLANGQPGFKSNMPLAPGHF

[9] = target: T5, α1A adrenoceptor (rat submaxillary gland) (Rattus norvegicus, UniProt P43140); assay: Radioligand binding, α1A (rat submaxillary gland), [3H]-prazosin
T5 construct: α1A (rat submaxillary gland); from tissue; host or cells: rat submaxillary gland
T5 sequence (P43140 1-466): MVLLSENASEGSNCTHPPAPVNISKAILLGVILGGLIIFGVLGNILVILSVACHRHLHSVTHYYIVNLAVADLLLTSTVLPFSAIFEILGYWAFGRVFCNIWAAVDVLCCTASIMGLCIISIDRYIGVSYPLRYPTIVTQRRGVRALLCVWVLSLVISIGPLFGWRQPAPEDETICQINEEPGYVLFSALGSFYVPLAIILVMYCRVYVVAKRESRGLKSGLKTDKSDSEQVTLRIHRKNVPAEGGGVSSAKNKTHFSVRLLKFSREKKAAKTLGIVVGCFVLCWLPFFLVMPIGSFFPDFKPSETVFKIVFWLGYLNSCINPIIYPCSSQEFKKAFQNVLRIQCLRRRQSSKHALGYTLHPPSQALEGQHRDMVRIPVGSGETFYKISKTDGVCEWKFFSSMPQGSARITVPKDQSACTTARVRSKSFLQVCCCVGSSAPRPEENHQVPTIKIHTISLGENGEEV

[10] = target: T6, α1d adrenoceptor (rat receptor expressed in mouse fibroblasts) (Rattus norvegicus, UniProt P23944); assay: Radioligand binding, α1d (rat receptor expressed in mouse fibroblasts), [3H]-prazosin
T6 construct: expressed in transfected cells; host or cells: mouse fibroblasts
T6 sequence (P23944 1-561): T2 sequence (P23944 1-561)

[11] = i.v., anesthetized female Beagle dogs, mean ± S.E.M.
[12] = i.v., anesthetized female Beagle dogs, dose producing 20 mmHg increase in MAP, mean ± S.E.M.

Row | Structure (SMILES) | α1A efficacy [1] [%] | IUP ED5 mmHg [2, 11] [nmol/kg] | α1D efficacy [3] [%] | Kb [4] [µM] | type of antagonism at α1B [4] | α1B r (regression of Schild plot) [4] | α1B slope (Schild plot) [4] | α1B pD2 ([5]; agonist potency) | Kb [6] [µM] | type of antagonism at α1D [7] | α1D r (regression of Schild plot) [7] | α1D slope (Schild plot) [7] | Selectivity ratio MAP ED20/IUP ED5 [2] | MAP ED20 mmHg [2, 12] [nmol/kg] | α1D pD2 ([3]; agonist potency) | also measured
1 | CS(=O)(=O)Nc1c(O)ccc2c1CCCC2C1=NCCN1 (centres unmarked) [Compound A-61603, reference compound] | 88 | 0.16 ± 0.02 | 100 | – | – | – | – | – | – | – | – | – | – | – | – | MAP ED20 mmHg ([2]; female, Beagle, dog, in vivo, iv): 0.27 ± 0.05 nmol/kg
2 | CCS(=O)(=O)Nc1cccc(Cc2c[nH]cn2)c1C [Compound A-286569] | 69 | 41.9 ± 6.2 | – | 15.8 | non-competitive antagonist | 0.6 | 1.3 | inactive | 6.31 | non-competitive antagonist | 0.5 | 1.1 | 5.6 | 201.6 ± 67 | inactive | –
3 | CCS(=O)(=O)Nc1cccc(Cc2c[nH]cn2)c1 [Compound A-286666] | 80 | – | – | 1.58 | competitive antagonist | 0.9 | 0.81 | inactive | 0.316 | competitive antagonist | 0.9 | 0.93 | – | – | inactive | –
4 | C[C@@H](N)[C@H](O)c1ccccc1 [PPA, phenylpropanolamine] | 68 | 1092 ± 384 | 91 | – | – | – | – | – | – | – | – | – | 0.4 | 331 ± 80 | – | EC50 ([1]; agonist potency, negative log of EC50, read-out: α1A pD2 (converted)): 200 µM; EC50 ([5]; agonist potency, read-out: α1B pD2 (converted)): 251 µM; α1B efficacy ([5]; percent of phenylephrine (100%) contraction): 34%; Ki [8]: > 10 µM; Ki [9]: > 10 µM; Ki [10]: > 10 µM; EC50 ([3]; agonist potency, read-out: α1D pD2 (converted)): 63.1 µM

From patent publication US20020183357A1, “Use of alpha- 1- alpha adrenoceptor agonists with alpha-1-Beta antagonism for the treatment of stress urinary incontinence” (priority 2000, published 2002)
